Experimental data as given in the NIST ThermoML archive (doi:10.1021/je401020e).
± gives the expanded uncertainty stated by the source. Values belong to the compound of their own block, whether it stands above or below them.

Assays:
[1] = refractive index (Na D-line) (dimensionless); conditions: 298.15 K; 101.33 kPa; Liquid; Standard Abbe refractometry
[2] = Liquid; for mass density: 298.15 K, 101.33 kPa, Vibrating tube method; for vapor or sublimation pressure: Closed cell (Static) method

refractive index [1]: 1.4312 ± 0.0003
mass density [2]: 1107.92 ± 0.09 kg/m3
vapor or sublimation pressure ([2]; 405.97 K): 10 ± 0.73 kPa
vapor or sublimation pressure ([2]; 406.07 K): 10 ± 0.73 kPa
vapor or sublimation pressure ([2]; 423.18 K): 20 ± 0.99 kPa
vapor or sublimation pressure ([2]; 441.92 K): 40 ± 1.6 kPa
SMILES: OCCO [1,2-ethanediol]

SMILES: OCCCCO [1,4-butanediol]
refractive index [1]: 1.4449 ± 0.0003
mass density [2]: 1013.04 ± 0.05 kg/m3
vapor or sublimation pressure ([2]; 437.48 K): 10 ± 0.73 kPa
vapor or sublimation pressure ([2]; 454.63 K): 20 ± 0.99 kPa
vapor or sublimation pressure ([2]; 473.22 K): 40 ± 1.6 kPa

SMILES: OCCOCCO [diethylene glycol]
refractive index [1]: 1.4452 ± 0.0003
mass density [2]: 1112.56 ± 0.12 kg/m3
vapor or sublimation pressure ([2]; 445.07 K): 10 ± 0.82 kPa
vapor or sublimation pressure ([2]; 445.47 K): 10 ± 0.81 kPa
vapor or sublimation pressure ([2]; 464.36 K): 20 ± 1.1 kPa
vapor or sublimation pressure ([2]; 485.33 K): 40 ± 1.8 kPa

refractive index [1]: 1.4457 ± 0.0003
mass density [2]: 1120.7 ± 0.1 kg/m3
vapor or sublimation pressure ([2]; 480.39 K): 10 ± 0.88 kPa
vapor or sublimation pressure ([2]; 500.97 K): 20 ± 1.2 kPa
vapor or sublimation pressure ([2]; 524.64 K): 40 ± 2 kPa
SMILES: OCCOCCOCCO [triethylene glycol]
